We go through 29 compounds from patent publication US10501449B2 (priority 2018, dated 2019).

The target in this assay is hROMK (human Kir1.1) (Homo sapiens (Human), UniProt P48048). In words: cell-based. The note with it: CHO T-Rex hROMK stable cell line; thallium flux; 10-point concentration response curve; read-out: Human ROMK Th Flux IC50.
Sequence of hROMK (human Kir1.1) (P48048 whole entry): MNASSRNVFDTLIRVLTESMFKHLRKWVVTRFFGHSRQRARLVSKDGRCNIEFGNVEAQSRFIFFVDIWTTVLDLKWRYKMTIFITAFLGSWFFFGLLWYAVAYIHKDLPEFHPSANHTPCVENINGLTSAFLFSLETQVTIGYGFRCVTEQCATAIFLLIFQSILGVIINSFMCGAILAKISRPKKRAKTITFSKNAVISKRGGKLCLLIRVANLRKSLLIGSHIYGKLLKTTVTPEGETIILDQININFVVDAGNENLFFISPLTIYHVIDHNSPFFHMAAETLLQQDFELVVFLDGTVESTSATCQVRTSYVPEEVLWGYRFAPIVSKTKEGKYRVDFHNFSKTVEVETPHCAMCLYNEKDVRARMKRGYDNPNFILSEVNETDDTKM
Method: Solutions and reagents: Thallium flux assay was performed using FluxOR kit (F10017, Life Technologies). Loading buffer, assay buffer and stimulus buffer were prepared using kit components. HBSS (Hank's balanced salt solution, Cat#14025-092) was purchased separately from Life Technologies.
To prepare 10 ml of loading buffer: 10 μl of FluxOR dye (reconstituted in DMSO) was first added to 100 μl of powerload concentrate and this mix along with 100 μl of Probenicid (100×) was then added to 9.79 ml of HBSS. Assay buffer (10 ml) was prepared by addition of 2 ml of FluxOR chloride free buffer (5×), 100 μl of Probenicid (100×), and 0.2 ml of Ouabain (13.77 mM) to 7.7 ml of deionized water. Stimulus buffer was composed of 15 mM Tl2SO4, 0.75 mM K2SO4 in FluxOR chloride free buffer (diluted to 1× using deionized water). The final concentration of Tl2SO4 and K2SO4 in the assay plate was 3 mM and 0.15 mM, respectively.
Plating and induction of cells: The CHO T-Rex hROMK (human Kir1.1) stable cell line was maintained in Ham's F12 media supplemented with 10% FBS, 1% Penicillin-Streptomycin, 500 μg/ml Zeocin and 10 μg/ml Blasticidin at 37° C. in a 5% CO2 incubator. One day before the experiment, the cells were dissociated by incubation with Versene solution (15040-066, Life Technologies) for 10 minutes at 37° C. followed by addition of growth media. The cell suspension was centrifuged at 1200 rpm for 5 min. After discarding the supernatant, the cells were resuspended in fresh growth media and cell concentration was determined using a hemocytometer. Next, 0.5 μg/ml of Doxycycline was added to the cell suspension to induce hROMK channel expression and 50 μl (10,000 cells/well) of cell suspension was added to each well of a poly-D lysine coated 384 well black, optically clear bottom plate (6007718, Perkin Elmer). The assay plate was kept at 37° C. in a 5% CO2 incubator.
Assay protocol: On the day of experiment, media was removed and loading buffer was added (30 μl/well) to the assay plate. The cells were incubated in the loading buffer for 30 minutes at 37° C. The loading buffer was then replaced by assay buffer (30 μl/well) followed by addition of test compounds or controls. The cells were incubated with compounds for 30 minutes and the plate was then mounted on FlexStation (Molecular Devices) for fluorescence read out with excitation and emission wavelengths at 488 and 525 nm, respectively. Each well was read for 90 sec at 2 sec interval and the stimulus buffer was added after 20 seconds of baseline recording. The final DMSO concentration was either 0.5 or 1% in the assay plate. Positive and negative controls were defined by addition of DMSO or 3 μM of a standard ROMK inhibitor, respectively, to the wells instead of a test compound.
A 10-point concentration response curve was used to estimate the IC50 value of test compounds.
In general, IC50 refers to the midpoint of a concentration-inhibition curve. Regarding `Cc1cncc(-n2cc(CN3CCO[C@H](c4ccc5c(c4C)COC5=O)C3)cn2)n1` [Example 41-I, (R)-4-methyl-5-(4-((1-(6-methylpyrazin-2-yl)-1H-pyrazol-4-yl)methyl)morpholin-2-yl) isobenzofuran-1(3H)-one], the IC50 was 0.98 µM. As to `Cc1c([C@@H]2CN(Cc3cnn(-c4cncc(C#N)c4)c3)CCO2)ccc2c1COC2=O` [Example 42-I, (R)-5-(4-((2-(4-methyl-1-oxo-1,3-dihydroiso-benzofuran-5-yl)morpholino)methyl)-1H-pyrazol-1-yl)nicotinonitrile], the 50% inhibitory concentration (IC50) came out at 0.49 µM.

Take `Cc1c([C@@H]2CN(Cc3cnn(-c4cccc(C#N)c4)c3)CCO2)ccc2c1COC2=O` [Example 43-I, (R)-3-(4-((2-(4-methyl-1-oxo-1,3-dihydroiso-benzofuran-5-yl)morpho-lino)methyl)-1H-pyrazol-1-yl)benzonitrile]: the IC50 came to 0.11 µM.

For `Cc1c([C@@H]2CN(Cc3cnn(-c4ccncc4)c3)CCO2)ccc2c1COC2=O` [Example 44-I, (R)-4-methyl-5-(4-((1-(pyridin-4-yl)-1H-pyrazol-4-yl)methyl)morpholin-2-yl)isobenzo-furan-1(3H)-one], the IC50 is 0.2 µM. With `Cc1c([C@@H]2CN(Cc3cnn(-c4ccc(S(C)(=O)=O)cc4)c3)CCO2)ccc2c1COC2=O` [Example 45-I, (R)-4-methyl-5-(4-((1-(4-(methylsulfonyl)phenyl)-1H-pyrazol-4-yl)methyl)morpholin-2-yl)isobenzofuran-1(3H)-one] the figure was 0.37 µM; with `Cc1c([C@@H]2CN(Cc3cnn(-c4ccn5nccc5n4)c3)CCO2)ccc2c1COC2=O` [Example 50-I, (R)-4-methyl-5-(4-((1-(pyrazolo[1,5-a]pyrimidin-5-yl)-1H-pyrazol-4-yl)methyl)morpholin-2-yl)isobenzofuran-1(3H)-one], 0.67 µM. With `Cc1cc(-n2ccc(CN3CCO[C@H](c4ccc5c(c4C)COC5=O)C3)n2)ncc1C#N` [Example 53-I, (R)-4-methyl-6-(3-((2-(4-methyl-1-oxo-1,3-dihydroisobenzofuran-5-yl)morpholino)methyl)-1H-pyrazol-1-yl) nicotinonitrile] the figure was 0.37 µM; with `COc1c(CN2CCN[C@H](c3ccc4c(c3C)COC4=O)C2)cnn1-c1ccc2oc(=O)n(C)c2c1` [Example 54-I, (R)-5-(5-methoxy-4-((3-(4-methyl-1-oxo-1,3-dihydroisobenzofuran-5-yl)piperazin-1-yl)methyl)-1H-pyrazol-1-yl)-3-methylbenzo[d] oxazol-2(3H)-one], 0.11 µM. `Cc1c([C@@H]2CN(Cc3cnn(-c4cc(F)c5oc(=O)n(C)c5c4)c3)CCN2)ccc2c1COC2=O` [Example 55-I, (R)-7-fluoro-3-methyl-5-(4-((3-(4-methyl-1-oxo-1,3-dihydroisobenzo-furan-5-yl)piperazin-1-yl)methyl)-1H-pyra-zol-1-yl)benzo[d]oxazol-2(3H)-one]: the IC50 stood at 0.086 µM. With `COc1cc(-n2cc(CN3CCN[C@H](c4ccc5c(c4C)COC5=O)C3)cn2)cc2c1oc(=O)n2C` [Example 56-I, (R)-7-methoxy-3-methyl-5-(4-((3-(4-methyl-1-oxo-1,3-dihydroiso-benzofuran-5-yl)piperazin-1-yl)methyl)-1H-pyrazol-1-yl)benzo[d] oxazol-2(3H)-one] the figure was 0.15 µM; with `Cc1c([C@@H]2CN(Cc3cnn(-c4ccc5oc(=O)n(C)c5c4)c3)CCN2)ccc2c1COC2=O` [Example 58-I, (R)-3-methyl-5-(4-((3-(4-methyl-1-oxo-1,3-dihydroisobenzofuran-5-yl)piperazin-1-yl)methyl)-1H-pyrazol-1-yl) benzo[d]oxazol-2(3H)-one], 0.06 µM; with `Cc1c([C@@H]2CN(Cc3nnc(-c4ccc(C#N)cn4)o3)CCN2)ccc2c1COC2=O` [Example 62-I, (R)-6-(5-((3-(4-methyl-1-oxo-1,3-dihydroiso-benzofuran-5-yl)piper-azin-1-yl)methyl)-1,3,4-oxadiazol-2-yl) nicotinonitrile], 0.17 µM. For the compound `CC(=O)N1CCN(Cc2cnn(-c3cc(C)c(C#N)cn3)c2)C[C@H]1c1ccc2c(c1C)COC2=O` [Example 68-I, (R)-6-(4-((4-acetyl-3-(4-methyl-1-oxo-1,3-di-hydroisobenzofuran-5-yl)piperazin-1-yl)methyl)-1H-pyrazol-1-yl)-4-methylnicotinonitrile], the IC50 was 1.7 µM. Then `Cc1cc(-n2cc(CN3CCN(S(C)(=O)=O)[C@H](c4ccc5c(c4C)COC5=O)C3)cn2)ncc1C#N` [Example 69-I, (R)-4-methyl-6-(4-((3-(4-methyl-1-oxo-1,3-dihydroisobenzofuran-5-yl)-4-(methylsulfonyl)piperazin-1-yl)methyl)-1H-pyrazol-1-yl) nicotinonitrile], with 0.9 µM; and `Cc1c([C@@H]2CN(Cc3cnn(-c4ccc5oc(=O)n(C)c5c4)c3)CC(=O)N2)ccc2c1COC2=O` [Example 71-I, (R)-3-methyl-5-(4-((3-(4-methyl-1-oxo-1,3-dihydroisobenzofuran-5-yl)-5-oxopiperazin-1-yl)methyl)-1H-pyrazol-1-yl)benzo[d]oxazol-2(3H)-one], with 0.8 µM. With `Cc1c([C@@H]2CN(Cc3cn(-c4ccc5oc(=O)n(C)c5c4)nn3)CC(=O)N2)ccc2c1COC2=O` [Example 72-I, (R)-3-methyl-5-(4-((3-(4-methyl-1-oxo-1,3-dihydroisobenzofuran-5-yl)-5-oxopiperazin-1-yl)methyl)-1H-1,2,3-triazol-1-yl)benzo[d] oxazol-2(3H)-one] the figure was 0.55 µM; with `Cc1c([C@@H]2CN(Cc3ccc(-n4cnc(C#N)n4)nc3)CC(=O)N2)ccc2c1COC2=O` [Example 73-I, (R)-1-(5-((3-(4-methyl-1-oxo-1,3-dihydroiso-benzofuran-5-yl)-5-oxo-piperazin-1-yl)methyl)pyridin-2-yl)-1H-1,2,4-triazole-3-carbonitrile], 0.15 µM; with `COc1cc(-c2ccc(CN3CC(=O)N[C@H](c4ccc5c(c4C)COC5=O)C3)cn2)ncc1C#N` [Example 74-I, (R)-4-methoxy-5′-((3-(4-methyl-1-oxo-1,3-di-hydroisobenzofuran-5-yl)-5-oxopiperazin-1-yl)methyl)-[2,2′-bi-pyridine]-5-carbonitrile], 0.57 µM. As for `Cc1ncn(-c2ccc(CN3CC(=O)N[C@H](c4ccc5c(c4C)COC5=O)C3)cn2)n1` [Example 75-I, (R)-6-(4-methyl-1-oxo-1,3-dihydroisobenzo-furan-5-yl)-4-((6-(3-methyl-1H-1,2,4-triazol-1-yl)pyridin-3-yl)methyl) piperazin-2-one], the IC50 was 0.68 µM.

`Cc1cn(-c2ccc(CN3CC(=O)N[C@H](c4ccc5c(c4C)COC5=O)C3)cn2)cn1` [Example 76-I, (R)-6-(4-methyl-1-oxo-1,3-dihydroisobenzo-furan-5-yl)-4-((6-(4-methyl-1H-imidazol-1-yl)pyridin-3-yl)methyl) piperazin-2-one]: the IC50 stood at 0.3 µM. Then `Cc1cc(-n2cc(CN3CC(=O)N(C)[C@H](c4ccc5c(c4C)COC5=O)C3)cn2)ncc1C#N` [Example 77-I, (R)-4-methyl-6-(4-((4-methyl-3-(4-methyl-1-oxo-1,3-dihydroisobenzo-furan-5-yl)-5-oxo-piperazin-1-yl)methyl)-1H-pyrazol-1-yl)nicotino-nitrile], with 0.82 µM; and `COc1cc(-n2cnc(CN3C[C@@H](c4ccc5c(c4C)COC5=O)OC3=O)c2)ncc1C#N` [Example 78-I, (R)-4-methoxy-6-(4-((5-(4-methyl-1-oxo-1,3-dihydroisobenzofuran-5-yl)-2-oxooxazolidin-3-yl)methyl)-1H-imidazol-1-yl)nicotinonitrile], with 0.81 µM; and `COc1c(CN2C[C@@H](c3ccc4c(c3C)COC4=O)OC2=O)cnn1-c1cc(C)c(C#N)cn1` [Example 79-I, (R)-6-(5-methoxy-4-((5-(4-methyl-1-oxo-1,3-dihydroisobenzofuran-5-yl)-2-oxooxazolidin-3-yl)methyl)-1H-pyrazol-1-yl)-4-methyl-nicotinonitrile], with 0.32 µM. Then `Cc1c([C@@H]2CN(Cc3cnn(-c4ccc5oc(=O)n(C)c5c4)c3)C(=O)O2)ccc2c1COC2=O` [Example 80-I, (R)-3-methyl-5-(4-((5-(4-methyl-1-oxo-1,3-dihydroisobenzofuran-5-yl)-2-oxooxazolidin-3-yl)methyl)-1H-pyrazol-1-yl)benzo[d]oxazol-2(3H)-one], with 0.49 µM; and `Cc1cc(-c2ncc(CN3C[C@@H](c4ccc5c(c4C)COC5=O)N[C@@H](C)C3)s2)ncc1C#N` [Example 113-I, 4,4-methyl-6-(5-(((3S,5R)-3-methyl-5-(4-methyl-1-oxo-1,3-dihydroisobenzofuran-5-yl)piperazin-1-yl)methyl)thiazol-2-yl)nicotinonitrile], with 0.025 µM. Take `Cc1cc(-n2cc(CN3C[C@@H](c4ccc5c(c4C)COC5=O)N[C@@H](C)C3)oc2=O)ncc1C#N` [Example 117-I, 4-methyl-6-(5-(((3S,5R)-3-methyl-5-(4-methyl-1-oxo-1,3-dihydroisobenzofuran-5-yl)piperazin-1-yl)methyl)-2-oxooxazol-3(2H)-yl)nicotinonitrile]: the IC50 amounted to 0.034 µM. Then `Cc1cc(-n2cc(CN3C[C@@H](c4ccc5c(c4C)COC5=O)NC3=O)cn2)ncc1C#N` [Example 118-I, (R)-4-methyl-6-(4-((4-(4-methyl-1-oxo-1,3-dihydroisobenzofuran-5-yl)-2-oxoimidazolidin-1-yl)methyl)-1H-pyrazol-1-yl)nicotinonitrile], with 0.29 µM; and `Cc1cc(-n2cc(CN3C[C@@H](c4ccc5c(c4C)COC5=O)NS3(=O)=O)cn2)ncc1C#N` [Example 119-I, (R)-4-methyl-6-(4-((4-(4-methyl-1-oxo-1,3-dihydroisobenzofuran-5-yl)-1,1-dioxido-1,2,5-thiadiazolidin-2-yl)methyl)-1H-pyrazol-1-yl)nicotinonitrile], with 0.14 µM; and `Cc1c([C@@H]2CN(Cc3ccc(-c4ccc(=O)n(C)n4)nc3)C[C@H](C)N2)ccc2c1COC2=O` [Example 120-I, 2-methyl-6-(5-(((3S,5R)-3-methyl-5-(4-methyl-1-oxo-1,3-dihydroisobenzofuran-5-yl)piperazin-1-yl)methyl)pyridin-2-yl)pyridazin-3(2H)-one], with 0.16 µM.
